# Test results as given in US20070293553A1, “Diphenylurea Derivatives Useful As Potassium Channel Activators” (priority 2004, published 2007).
row,Structure (SMILES),melting point
1,"O=C(Nc1cccc(C(F)(F)F)c1)Nc1ccc(-c2ccc(Cl)cc2)cc1-c1nnn[nH]1 [Compound 3-2, N-(3-Trifluoromethyl-phenyl)-N′-[4′-chloro-3-(1H-tetrazol-5-yl)-biphenyl-4-yl]-urea]",253 to 254 °C
2,"O=C(Nc1ccc(Cl)c(C(F)(F)F)c1)Nc1ccc(-c2ccc(Cl)cc2)cc1-c1nnn[nH]1 [Compound 3-3, N-(4-Chloro-3-trifluoromethyl-phenyl)-N′-[4′-chloro-3-(1H-tetrazol-5-yl)-biphenyl-4-yl]-urea]",242 to 243 °C
3,"O=C(Nc1cc(Cl)cc(Cl)c1)Nc1ccc(-c2ccc(Cl)cc2)cc1-c1nnn[nH]1 [Compound 3-4, N-(3,5-Dichloro-phenyl)-N′-[4′-chloro-3-(1H-tetrazol-5-yl)-biphenyl-4-yl]-urea]",231 to 234 °C
4,"O=C(Nc1cc(F)cc(F)c1)Nc1ccc(-c2ccc(Cl)cc2)cc1-c1nnn[nH]1 [Compound 3-5, N-(3,5-Difluoro-phenyl)-N′-[4′-chloro-3-(1H-tetrazol-5-yl)-biphenyl-4-yl]-urea]",250 to 251 °C
5,"O=C(Nc1cc(Cl)cc(Cl)c1)Nc1ccc(-c2ccc(C(F)(F)F)cc2)cc1-c1nnn[nH]1 [Compound 3-6, N-(3,5-Dichloro-phenyl)-N′-[3-(1H-tetrazol-5-yl)-4′-trifluoromethyl-biphenyl-4-yl]-urea]",226 to 230 °C
6,"O=C(Nc1cc(F)cc(F)c1)Nc1ccc(-c2ccc(C(F)(F)F)cc2)cc1-c1nnn[nH]1 [Compound 3-7, N-(3,5-Difluoro-phenyl)-N′-[3-(1H-tetrazol-5-yl)-4′-trifluoromethyl-biphenyl-4-yl]-urea]",245 to 247 °C
7,"O=C(Nc1cc(-c2ccc(F)cc2)cc(-c2nnn[nH]2)c1)Nc1cccc(C(F)(F)F)c1 [Compound 3-8, N-(3-Trifluoromethyl-phenyl)-N′-[4′-fluoro-3-(1H-tetrazol-5-yl)-biphenyl-5-yl]-urea]",256 to 258 °C
8,"O=C(Nc1ccc(Cl)c(C(F)(F)F)c1)Nc1ccc(-c2ccc(F)cc2)cc1-c1nnn[nH]1 [Compound 3-9, N-(4-Chloro-3-trifluoromethyl-phenyl)-N′-[4′-fluoro-3-(1H-tetrazol-5-yl)-biphenyl-4-yl]-urea]",247 to 249 °C
9,"O=C(Nc1cc(Cl)cc(Cl)c1)Nc1ccc(-c2ccc(F)cc2)cc1-c1nnn[nH]1 [Compound 3-10, N-(3,5-Dichloro-phenyl)-N′-[4′-fluoro-3-(1H-tetrazol-5-yl)-biphenyl-4-yl]-urea]",241 to 243 °C
10,"O=C(Nc1cc(F)cc(F)c1)Nc1ccc(-c2ccc(F)cc2)c(-c2nnn[nH]2)c1 [Compound 3-11, N-(3,5-Difluoro-phenyl)-N′-[4′-fluoro-2-(1H-tetrazol-5-yl)-biphenyl-4-yl]-urea]",255 to 256 °C
11,"O=C(Nc1ccc(F)c(C(F)(F)F)c1)Nc1ccc(-c2ccc(C(F)(F)F)cc2)cc1-c1nnn[nH]1 [Compound 3-12, N-(4-Fluoro-3-trifluoromethyl-phenyl)-N′-[3-(1H-tetrazol-5-yl)-4′-trifluoromethyl-biphenyl-4-yl]-urea]",247 to 249 °C
12,"O=C(Nc1cc(C(F)(F)F)cc(C(F)(F)F)c1)Nc1ccc(-c2ccc(C(F)(F)F)cc2)cc1-c1nnn[nH]1 [Compound 3-13, N-(3,5-Bis-trifluoromethyl-phenyl)-N′-[3-(1H-tetrazol-5-yl)-4′-trifluoromethyl-biphenyl-4-yl]-urea]",246 to 248 °C
13,"O=C(Nc1cc(C(F)(F)F)cc(C(F)(F)F)c1)Nc1ccc(-c2ccc(Cl)cc2)cc1-c1nnn[nH]1 [Compound 3-14, N-(3,5-Bis-trifluoromethyl-phenyl)-N′-[4′-chloro-3-(1H-tetrazol-5-yl)-biphenyl-4-yl]-urea]",230 to 233 °C
14,"O=C(Nc1ccc(F)c(C(F)(F)F)c1)Nc1ccc(-c2ccc(Cl)cc2)cc1-c1nnn[nH]1 [Compound 3-15, N-(4-Fluoro-3-trifluoromethyl-phenyl)-N′-[4′-chloro-3-(1H-tetrazol-5-yl)-biphenyl-4-yl]-urea]",243 to 245 °C
15,"O=C(Nc1cc(C(F)(F)F)cc(C(F)(F)F)c1)Nc1ccc(-c2ccc(F)cc2)cc1-c1nnn[nH]1 [Compound 3-16, N-(3,5-Bis-trifluoromethyl-phenyl)-N′-[4′-fluoro-3-(1H-tetrazol-5-yl)-biphenyl-4-yl]-urea]",251 to 253 °C
16,"O=C(Nc1ccc(F)c(C(F)(F)F)c1)Nc1ccc(-c2ccc(F)cc2)cc1-c1nnn[nH]1 [Compound 3-17, N-(4-Fluoro-3-trifluoromethyl-phenyl)-N′-[4′-fluoro-3-(1H-tetrazol-5-yl)-biphenyl-4-yl]-urea]",253 to 254 °C
17,"O=C(Nc1ccc(-c2ccc(C(F)(F)F)cc2)cc1-c1nnn[nH]1)Nc1ccccc1C(F)(F)F [Compound 3-18, N-(2-Trifluoromethyl-phenyl)-N′-[3-(1H-tetrazol-5-yl)-4′-trifluoromethyl-biphenyl-4-yl]-urea]",240 to 243 °C
18,"O=C(Nc1ccc(-c2ccc(F)cc2)cc1-c1nnn[nH]1)Nc1ccccc1C(F)(F)F [Compound 3-19, N-(2-Trifluoromethyl-phenyl)-N′-[4′-fluoro-3-(1H-tetrazol-5-yl)-biphenyl-4-yl]-urea]",256 to 258 °C
19,"O=C(Nc1ccccc1Br)Nc1ccc(-c2ccc(C(F)(F)F)cc2)cc1-c1nnn[nH]1 [Compound 3-20, N-(2-Bromo-phenyl)-N′-[3-(1H-tetrazol-5-yl)-4′-trifluoromethyl-biphenyl-4-yl]-urea]",242 to 243 °C

row,Structure (SMILES),melting point
1,"O=C(Nc1ccc(-c2ccc(Cl)cc2)cc1-c1nnn[nH]1)Nc1ccccc1C(F)(F)F [Compound 3-21, N-(2-Trifluoromethyl-phenyl)-N′-[4′-chloro-3-(1H-tetrazol-5-yl)-biphenyl-4-yl]-urea]",290 to 292 °C
2,"O=C(Nc1ccccc1Br)Nc1ccc(-c2ccc(Cl)cc2)cc1-c1nnn[nH]1 [Compound 3-22, N-(2-Bromo-phenyl)-N′-[4′-chloro-3-(1H-tetrazol-5-yl)-biphenyl-4-yl]-urea]",255 to 256 °C
3,"O=C(Nc1ccccc1Br)Nc1ccc(-c2ccc(F)cc2)cc1-c1nnn[nH]1 [Compound 3-23, N-(2-Bromo-phenyl)-N′-[4′-fluoro-3-(1H-tetrazol-5-yl)-biphenyl-4-yl]-urea]",256 to 258 °C
4,"O=C(Nc1ccccc1F)Nc1ccc(-c2ccc(C(F)(F)F)cc2)cc1-c1nnn[nH]1 [Compound 3-24, N-(2-Fluoro-phenyl)-N′-[3-(1H-tetrazol-5-yl)-4′-trifluoromethyl-biphenyl-4-yl]-urea]",251 to 252 °C
5,"O=C(Nc1ccccc1F)Nc1ccc(-c2ccc(Cl)cc2)cc1-c1nnn[nH]1 [Compound 3-25, N-(2-Fluoro-phenyl)-N′-[4′-chloro-3-(1H-tetrazol-5-yl)-biphenyl-4-yl]-urea]",257 to 259 °C
6,"O=C(Nc1ccccc1F)Nc1ccc(-c2ccc(F)cc2)cc1-c1nnn[nH]1 [Compound 3-26, N-(2-Fluoro-phenyl)-N′-[4′-fluoro-3-(1H-tetrazol-5-yl)-biphenyl-4-yl]-urea]",263 to 264 °C
7,"Cc1ccc(-c2ccc(NC(=O)Nc3ccccc3F)c(-c3nnn[nH]3)c2)cc1 [Compound 3-27, N-(2-Fluoro-phenyl)-N′-[4′-methyl-3-(1H-tetrazol-5-yl)-biphenyl-4-yl]-urea]",260 to 262 °C
8,"Cc1ccc(-c2ccc(NC(=O)Nc3ccccc3Cl)c(-c3nnn[nH]3)c2)cc1 [Compound 3-28, N-(2-Chloro-phenyl)-N′-[4′-methyl-3-(1H-tetrazol-5-yl)-biphenyl-4-yl]-urea]",261 to 263 °C
9,"Cc1ccc(-c2ccc(NC(=O)Nc3ccccc3Br)c(-c3nnn[nH]3)c2)cc1 [Compound 3-29, N-(2-Bromo-phenyl)-N′-[4′-methyl-3-(1H-tetrazol-5-yl)-biphenyl-4-yl]-urea]",255 to 257 °C
10,"Cc1ccc(-c2ccc(NC(=O)Nc3ccccc3C(F)(F)F)c(-c3nnn[nH]3)c2)cc1 [Compound 3-30, N-(2-Trifluoromethyl-phenyl)-N′-[4′-methyl-3-(1H-tetrazol-5-yl)-biphenyl-4-yl]-urea]",259 to 261 °C
11,"O=C(Nc1ccccc1Cl)Nc1ccc(-c2ccc(C(F)(F)F)cc2)cc1-c1nnn[nH]1 [Compound 3-31, N-(2-Chloro-phenyl)-N′-[3-(1H-tetrazol-5-yl)-4′-trifluoromethyl-biphenyl-4-yl]-urea]",254 to 255 °C
12,"O=C(Nc1ccccc1Cl)Nc1ccc(-c2ccc(Cl)cc2)cc1-c1nnn[nH]1 [Compound 3-32, N-(2-Chloro-phenyl)-N′-[4′-chloro-3-(1H-tetrazol-5-yl)-biphenyl-4-yl]-urea]",255 to 257 °C
13,"O=C(Nc1ccccc1Cl)Nc1ccc(-c2ccc(F)cc2)cc1-c1nnn[nH]1 [Compound 3-33, N-(2-Chloro-phenyl)-N′-[4′-fluoro-3-(1H-tetrazol-5-yl)-biphenyl-4-yl]-urea]",255 to 257 °C
14,"COc1ccc(-c2ccc(NC(=O)Nc3cc(Cl)cc(Cl)c3)c(-c3nnn[nH]3)c2)cc1 [Compound 3-34, N-(3,5-Dichloro-phenyl)-N′-[4′-methoxy-3-(1H-tetrazol-5-yl)-biphenyl-4-yl]-urea]",200 to 201 °C
15,"O=C(Nc1cc(F)cc(F)c1)Nc1ccc(-c2ccc(OC(F)(F)F)cc2)cc1-c1nnn[nH]1 [Compound 3-35, N-(3,5-Difluoro-phenyl)-N′-[3-(1H-tetrazol-5-yl)-4′-trifluoromethoxy-biphenyl-4-yl]-urea]",238 to 241 °C
16,"O=C(Nc1cc(Cl)cc(Cl)c1)Nc1ccc(-c2ccc(OC(F)(F)F)cc2)cc1-c1nnn[nH]1 [Compound 3-36, N-(3,5-Dichloro-phenyl)-N′-[3-(1H-tetrazol-5-yl)-4′-trifluoromethoxy-biphenyl-4-yl]-urea]",224 to 225 °C
17,"O=C(Nc1cc(C(F)(F)F)cc(C(F)(F)F)c1)Nc1ccc(-c2ccc(OC(F)(F)F)cc2)cc1-c1nnn[nH]1 [Compound 3-37, N-(3,5-Bis-trifluoromethyl-phenyl)-N′-[3-(1H-tetrazol-5-yl)-4′-trifluoromethoxy-biphenyl-4-yl]-urea]",238 to 240 °C
18,"O=C(Nc1cc(F)cc(F)c1)Nc1ccc(-c2cccc(C(F)(F)F)c2)cc1-c1nnn[nH]1 [Compound 3-38, N-(3,5-Difluoro-phenyl)-N′-[3-(1H-tetrazol-5-yl)-3′-trifluoromethyl-biphenyl-4-yl]-urea]",255 to 257 °C
